Source: patent publication US11884649B2, “IRE1α inhibitors and uses thereof” (The Regents of the University of California, priority 2020, dated 2024)

Legend:
IRE1α* = molecular target: T1, IRE1α* (Homo sapiens, UniProt O75460); assay: In vitro kinase activity assay (IRE1α kinase inhibition); assay type: biochemical; conditions: IRE1α kinase inhibition; read-out: IC50 IRE1a
T1 construct: human IRE1α (residues 547-977, IRE1α*) was expressed in SF9 insect cells; His6 (N); made in house; host or cells: Sf9 insect cells (Bac-to-Bac baculovirus)
T1 sequence (O75460 547-977): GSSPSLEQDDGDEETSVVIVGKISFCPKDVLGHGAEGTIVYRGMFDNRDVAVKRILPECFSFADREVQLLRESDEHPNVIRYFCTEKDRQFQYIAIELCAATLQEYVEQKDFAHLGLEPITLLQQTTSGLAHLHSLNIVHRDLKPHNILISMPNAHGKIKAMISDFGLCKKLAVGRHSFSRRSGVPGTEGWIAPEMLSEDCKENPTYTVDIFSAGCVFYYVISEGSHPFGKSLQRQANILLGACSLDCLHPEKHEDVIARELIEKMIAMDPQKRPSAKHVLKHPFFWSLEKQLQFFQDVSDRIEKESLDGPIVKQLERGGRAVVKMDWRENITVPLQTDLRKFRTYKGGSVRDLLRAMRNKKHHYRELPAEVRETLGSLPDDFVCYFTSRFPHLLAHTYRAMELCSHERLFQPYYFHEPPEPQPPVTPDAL
Procedure: A construct containing the cytosolic kinase and RNase domains of human IRE1α (residues 547-977, IRE1α*) was expressed in SF9 insect cells by using the Bac-to-Bac baculovirus expression system (Invitrogen) with a His6 tag at the N-terminus and purified with a nickel-nitriloacetic acid (Qiagen) column. To generate dP-IRE1α*, we removed basal phosphorylation sites by incubating IRE1α* with λ-PPase (New England Biolabs) at a molar ratio of 5:1 (IRE1α*: λ-PPase) in 50 mM HEPES pH 7.5, 100 mM NaCl, 1 mM MnCl2, 2 mM dithiothreitol (DTT) and 0.01% Brij 35 detergent (v/v) overnight at 4° C. Dephosphorylation was verified through western blotting using a universal phospho-protein detection agent (biotin-pIMAGO (Tymora Analytical Operations, Cat. No.: FL800) and imaged using a streptavidin-linked fluorophore.
In Vitro Kinase Activity Assay
Inhibitors (initial concentration of 10 or 60 μM, three-fold serial dilutions) were incubated with IRE1α* in cleavage buffer (20 mM HEPES, 0.05% Triton X-100 (v/v), 50 mM KCl, 1 mM MgCl2, 1 mM DTT, pH 7.5) for 30 min, followed by incubation with 10 μCi [γ^32P] ATP (3,000 Ci mmol^−1, PerkinElmer) at 23° C. for 3 hours. Samples were then spotted onto glass fiber paper (Easytab-C Glass Fiber Filter Paper, Perkin Elmer) and washed in twice with 0.5% phosphoric acid and autoradiographed using a GE Typhoon FLA 9000 Imager. Blots were quantitated using ImageQuant software. The percent inhibition was quantified by setting the background (no kinase well) as 0 and standardizing to IRE1α* without compound treatment (IRE1α*+DMSO). Dose-response curves were fit using “one-site fit log IC50” parameter using GraphPad Prism analysis software.
Compound Characterization (IC50 IRE1α Kinase Inhibition)

XBP1 mRNA splicing = XBP1 mRNA splicing in INS-1 cells conditionally overexpressing IRE1α (Dox); assay type: cell-based, rat; conditions: 3, 10 μM for 1 hour, then Dox (1 μg/mL) for 4 hours
Procedure: (§1) RNA Isolation, Quantitative Real-Time PCR, and Primers
(§2) INS-1 or isogenic IRE1α-overexpressing INS-1 cells were plated onto Poly-D-Lysine coated tissue culture plate and grown for 48 hrs. Inhibitors or DMSO were added to the media and incubated for 1 hour at 37° C. with 5% CO2 prior to addition of ER stress agents or Dox as indicated. RNA was isolated from whole cells using either QIAGEN RNeasy Mini kits or Trizol (Invitrogen) and reverse transcribed as above to obtain total cDNA. Then, XBP-1 primers were used to amplify an XBP-1 amplicon spanning the 26 nt intron from the cDNA samples in a regular 3-step PCR. Thermal cycles were: 5 min at 95° C., 30 cycles of 30 s at 95° C., 30 s at 60° C., and 1 min at 72° C., followed by 72° C. for 15 min, and hold at 4° C. Primers used for XBP-1 mRNA splicing were as follows: sense primer XBP1.3 S (5′ […]-3′ (SEQ ID NO:2)) and antisense primer XBP1.2AS (5′-[…]-3′ (SEQ ID NO:3)). PCR fragments were then digested by PstI, resolved on 3% agarose gels, stained with EtBr and quantified by densitometry using ImageJ (NIH). For standard mRNA detection, generally […] total RNA was reverse transcribed using the QuantiTect Reverse Transcription Kit (QIAGEN). For qPCR, we used SYBR green (QIAGEN) and StepOnePlus Real-Time PCR System (Applied Biosystems). Thermal cycles were: 5 min at 95° C., 40 cycles of 15 sec at 95° C., 30 sec at 60° C. Gene expression levels were normalized to Beta Actin. Primers used for qPCR of RIDD targets were as follows: Beta Actin Fwd: 5′-[…]-3′ (SEQ ID NO:4), Beta Actin Rev: 5′-[…]-3′ (SEQ ID NO:5), Insulin 1 Fwd: 5′-GTCCTCTGGGAGCCCAAG-3′ (SEQ ID NO:6), Insulin 1 Rev: 5′-ACAGAGCCTCCACCAGG-3′ (SEQ ID NO:7), Insulin 2 Fwd: 5′-ATCCTCTGGGAGCCCCGC-3′ (SEQ ID NO:8), Insulin 2 Rev: 5′-AGAGAGCTTCCACCAAG-3′ (SEQ ID NO:9), Blos1 Fwd: 5′-[…]-3′ (SEQ ID NO:10), and Blos1 Rev: 5′-[…]-3′ (SEQ ID NO:11).
(§3) RNA was extracted using Trizol (Invitrogen), DNaseI treated, and cDNA products encompassing the intron amplified by QuantiTect Reverse Transcription Kit (Qiagen). sense Primer rXBP Forward (5′-[…]-3′ (SEQ ID NO:12)) and antisense primer rXBP Reverse (5′-[…]-3′ (SEQ ID NO:13)) were used. PCR fragments were digested by PstI, resolved on 3% agarose gels, stained with EtBr, and quantified by densitometry.
as §3, with “XBP1 splicing for FIGS. 33A-33F: RNA” for “RNA”, “(Invitrogen),” for “(Invitrogen), DNaseI treated, and”, “(Qiagen). Sense” for “(Qiagen). sense”, “rXBP splicing” for “rXBP”

[1] = tested on: RIDD (IRE1α-dependent mRNA decay); assay: Real-time PCR of RIDD mRNA targets in INS-1 cells overexpressing IRE1α (Dox); assay type: cell-based, rat; conditions: 3, 10 μM for 1 hour, then Dox (5 ng/mL) for 24 hours
Procedure: as §1, §2
Real-Time PCR (Q-PCR) used SYBR green and Step OnePlus Real-Time PCR System (Applied Biosystems). Thermal cycles were: 5 min at 95° C., 40 cycles of 15 s at 95° C., 30 s at 60° C. Gene expression levels were normalized to GAPDH. Q-PCR Sense/antisense primers used: Rat GAPDH, 5′-[…]-3′ (SEQ ID NO:14) and 5′-[…]-3′ (SEQ ID NO:15); Rat Ins1, 5′-GTCCTCTGGGAGCCCAAG-3′ (SEQ ID NO:6) and 5′-ACAGAGCCTCCACCAGG-3′ (SEQ ID NO:7); Rat Pdia4, 5′-CGTCTCGCCCTGATTCGT-3′ (SEQ ID NO:16) and 5′-[…]-3′ (SEQ ID NO:17); Rat Blos1, 5′-[…]-3′ (SEQ ID NO:18) and 5′-TGTCCAGTTCGATGCTCCG-3′ (SEQ ID NO:19).
Real-time PCR for FIGS. 34A-34F: Real-Time PCR (Q-PCR) used SYBR green and Step OnePlus Real-Time PCR System (Applied Biosystems). Thermal cycles were: 5 min at 95° C., 40 cycles of 15 s at 95° C., 30 s at 60° C. Gene expression levels were normalized to GAPDH. Q-PCR Sense/antisense primers used: Rat GAPDH, 5′-[…]-3′ (SEQ ID NO:20) and 5′-[…]-3′ (SEQ ID NO:21); Rat Ins1, 5′-GTCCTCTGGGAGCCCAAG-3′ (SEQ ID NO:6) and 5′-ACAGAGCCTCCACCAGG-3′ (SEQ ID NO:7); Rat Ins2, 5′-ATCCTCTGGGAGCCCCGC-3′ (SEQ ID NO:8) and 5′-AGAGAGCTTCCACCAAG-3′ (SEQ ID NO:9); Rat Pdia4, 5′-[…]-3′(SEQ ID NO:22) and 5′-[…]-3′ (SEQ ID NO:23); Rat Blos1, 5′-[…]-3′ (SEQ ID NO:18) and 5′-TGTCCAGTTCGATGCTCCG-3′ (SEQ ID NO:19).

| IC50 (IRE1α*) | Compound | % spliced XBP1 amplicons (XBP1 mRNA splicing) | RIDD mRNA targets (Ins1, Ins2, Pdia4) [1] |
| --- | --- | --- | --- |
| 13 nM | Cc1cc(NS(=O)(=O)C2CC2)c2ccccc2c1Oc1ncccc1-c1ccnc(N[C@@H]2CNC[C@@H](F)C2)n1 [LBC-412, N-(4-((3-(2-(((3S,5S)-5-fluoropiperidin-3-yl)amino)pyrimidin-4-yl)pyridin-2-yl)oxy)-3-methylnaphthalen-1-yl) cyclopropane sulfonamide] | do not suppress XBP mRNA splicing | block RIDD |
| 32 nM | Cc1cc(NS(=O)(=O)C2(C)CC2)c2ccccc2c1Oc1ncccc1-c1ccnc(N[C@@H]2CNC[C@@H](F)C2)n1 [LBC-413, N-(4-((3-(2-(((3S,5S)-5-fluoropiperidin-3-yl)amino)pyrimidin-4-yl)pyridin-2-yl)oxy)-3-methylnaphthalen-1-yl)-1-methylcyclopropane-1-sulfonamide] | do not suppress XBP mRNA splicing | block RIDD |

Second part, the compound before the results:

| Compound | IC50 (IRE1α*) | % spliced XBP1 amplicons (XBP1 mRNA splicing) | RIDD mRNA targets (Ins1, Ins2, Pdia4) [1] |
| --- | --- | --- | --- |
| Cc1cc(NS(=O)(=O)C2CCC2)c2ccccc2c1Oc1ncccc1-c1ccnc(N[C@@H]2CNC[C@@H](F)C2)n1 [LBC-411, N-(4-((3-(2-(((3S,5S)-5-fluoropiperidin-3-yl)amino)pyrimidin-4-yl)pyridin-2-yl)oxy)-3-methylnaphthalen-1-yl)cyclobutanesulfonamide] | 4.4 nM | do not suppress XBP mRNA splicing | block RIDD |
| Cc1cc(NS(=O)(=O)CCC(F)(F)F)c2ccccc2c1Oc1ncccc1-c1ccnc(N[C@@H]2CNC[C@@H](F)C2)n1 [LBC-410, 3,3,3-trifluoro-N-(4-((3-(2-(((3S,5S)-5-fluoropiperidin-3-yl)amino)pyrimidin-4-yl)pyridin-2-yl)oxy)-3-methylnaphthalen-1-yl)propane-1-sulfonamide] | 3.4 nM | suppresses XBP1 splicing | block RIDD |
| Cc1cc(NS(=O)(=O)CC2CC2)c2ccccc2c1Oc1ncccc1-c1ccnc(N[C@@H]2CNC[C@@H](F)C2)n1 [LBC-409, 1-cyclopropyl-N-(4-((3-(2-(((3S,5S)-5-fluoropiperidin-3-yl)amino)pyrimidin-4-yl)pyridin-2-yl)oxy)-3-methylnaphthalen-1-yl)methanesulfonamide] | 7.4 nM | do not suppress XBP mRNA splicing | block RIDD |
